Data published in US20260224582A1, “Heterobicyclic amides as inhibitors of CD38” (Cerevance, Inc., priority 2022, published 2026).

How the values were obtained:
[1] = target: T1, Recombinant human CD38 (Homo sapiens, UniProt P28907); test: Human CD38 hydrolase assay (fluorescence-based, ε-NAD substrate); type: biochemical; conditions: recombinant human CD38 0.8 nM, 4 μM ε-NAD, 30 min preincubation at 25° C.
T1 sequence (P28907 1-300): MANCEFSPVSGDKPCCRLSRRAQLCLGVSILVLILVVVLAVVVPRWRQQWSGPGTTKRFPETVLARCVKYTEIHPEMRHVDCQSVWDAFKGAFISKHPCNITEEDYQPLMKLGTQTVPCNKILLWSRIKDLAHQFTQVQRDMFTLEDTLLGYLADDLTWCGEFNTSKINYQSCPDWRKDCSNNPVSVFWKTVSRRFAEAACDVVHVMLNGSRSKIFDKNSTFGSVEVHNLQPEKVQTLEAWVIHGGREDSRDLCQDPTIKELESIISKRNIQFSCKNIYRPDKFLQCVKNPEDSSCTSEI
Procedure: The ability of test compounds to inhibit human CD38 hydrolase activity was measured in a fluorescence-based assay using non-physiological NAD^+ substrate analogue 1,N^6-etheno NAD^+ (ε-NAD). Recombinant human CD38 (0.8 nM) was preincubated with test compounds in 384-well black microplates for 30 min at 25° C. in PBS (—Ca^2+/Mg^2+) containing 0.005% BSA (pH 7.4). CD38 hydrolase activity was initiated by addition of 4 μM ε-NAD, which yields the fluorescent product 1,N^6-etheno ADP-ribose. Formation of fluorescent product was followed using ClarioStar Plus (BMG) microplate reader by reading fluorescence (excitation λ=300 nm; emission λ=410 nm) at two time points, one immediately after substrate addition (t=0) and one at 10 min (t=10). Data was analysed by subtracting the values detected at t=0 from t=10 to correct for variation in baseline fluorescence. Fluorescence values were converted to percent inhibition using the average of high signal (CD38 and ε-NAD) and low signal (CD38 and ε-NAD in the presence of a tool CD38 inhibitor) control wells. IC50 values were determined from a 10-point, half log concentration response curve with a four-parameter logistic equation.

[2] = target: T2, Recombinant mouse CD38 (Mus musculus, UniProt P56528); test: Mouse CD38 hydrolase assay (fluorescence-based, ε-NAD substrate); type: biochemical; conditions: recombinant mouse CD38 0.4 nM, 12 μM ε-NAD, 30 min preincubation at 25° C.
T2 sequence (P56528 1-304): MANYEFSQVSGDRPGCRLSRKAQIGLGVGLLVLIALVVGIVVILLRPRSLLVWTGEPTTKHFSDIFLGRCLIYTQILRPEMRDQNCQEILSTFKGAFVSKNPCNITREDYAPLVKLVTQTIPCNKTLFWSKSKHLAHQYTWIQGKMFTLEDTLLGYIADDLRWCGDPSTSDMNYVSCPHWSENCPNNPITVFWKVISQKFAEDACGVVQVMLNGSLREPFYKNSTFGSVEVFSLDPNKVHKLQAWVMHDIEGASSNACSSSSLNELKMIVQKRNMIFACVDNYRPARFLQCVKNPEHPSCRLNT
Procedure: The ability of test compounds to inhibit mouse CD38 hydrolase activity was measured in a fluorescence-based assay using non-physiological NAD^+ substrate analogue 1,N^6-etheno NAD^+ (&-NAD). Recombinant mouse CD38 (0.4 nM) was preincubated with test compounds in 384-well black microplates for 30 min at 25° C. in PBS (—Ca^2+/Mg^2+) containing 0.005% BSA (pH 7.4). CD38 hydrolase activity was initiated by addition of 12 μM ε-NAD, which yields the fluorescent product 1,N^6-etheno ADP-ribose. Formation of fluorescent product was followed using ClarioStar Plus (BMG) microplate reader by reading fluorescence (excitation λ=300 nm; emission λ=410 nm) at two time points, one immediately after substrate addition (t=0) and one at 6 min (t=6).
Data was analysed by subtracting the values detected at t=0 from t=6 to correct for variation in baseline fluorescence. Fluorescence values were converted to percent inhibition using the average of high signal (CD38 and ε-NAD) and low signal (CD38 and ε-NAD in the presence of a tool CD38 inhibitor) control wells. IC50 values were determined from a 10-point, halflog concentration response curve with a four-parameter logistic equation.

| SMILES | IC50 [1] | IC50 [2] |
| --- | --- | --- |
| O=C(N[C@H]1CC[C@H](N2CC[C@@H](O)C2)CC1)c1nc(-n2ccnc2)nn2cccc12 [Example 27, N-((1R,4r)-4-((R)-3-hydroxypyrrolidin-1-yl)cyclohexyl)-2-(1H-imidazol-1-yl)pyrrolo[2,1-f][1,2,4]triazine-4-carboxamide] | ≤ 40 nM | ≤ 40 nM |
| O=C(N[C@H]1CC[C@H](N2CC[C@@H](F)C2)CC1)c1nc(-n2ccnc2)c2cccn2n1 [Example 28, N-((1R,4r)-4-((R)-3-fluoropyrrolidin-1-yl)cyclohexyl)-4-(1H-imidazol-1-yl)pyrrolo[2,1-f][1,2,4]triazine-2-carboxamide] | ≤ 10000 nM | ≤ 40 nM |
| O=C(N[C@H]1CC[C@H](NCC(F)(F)F)CC1)c1nc(-c2cncs2)nn2cccc12 [Example 30, 2-(thiazol-5-yl)-N-((1r,4r)-4-((2,2,2-trifluoroethyl)amino)cyclohexyl)pyrrolo[2,1-f][1,2,4]triazine-4-carboxamide] | ≤ 100 nM | ≤ 40 nM |
| O=C(N[C@H]1CC[C@H](NCC(F)F)CC1)c1nc(-n2ccnc2)nn2cccc12 [Example 31, N-((1r,4r)-4-((2,2-difluoroethyl)amino)cyclohexyl)-2-(1H-imidazol-1-yl)pyrrolo[2,1-f][1,2,4]triazine-4-carboxamide] | ≤ 40 nM | ≤ 40 nM |
| O=C(N[C@H]1CC[C@H](N2CC[C@H](F)C2)CC1)c1nc(-n2ccnc2)nc2ncccc12 [Example 32, N-((1S,4r)-4-((S)-3-fluoropyrrolidin-1-yl)cyclohexyl)-2-(1H-imidazol-1-yl)pyrido[2,3-d]pyrimidine-4-carboxamide] | ≤ 100 nM | ≤ 40 nM |
| O=C(N[C@H]1CC[C@H](N2CC[C@@H](F)C2)CC1)c1cn2nccc2c(-n2ccnc2)n1 [Example 35, N-((1R,4r)-4-((R)-3-fluoropyrrolidin-1-yl)cyclohexyl)-4-(1H-imidazol-1-yl)pyrazolo[1,5-a]pyrazine-6-carboxamide] | ≤ 100 nM | ≤ 40 nM |
| O=C(N[C@H]1CC[C@H](N2CC[C@H](F)C2)CC1)c1cn2nccc2c(-n2ccnc2)n1 [Example 36, N-((1S,4r)-4-((S)-3-fluoropyrrolidin-1-yl)cyclohexyl)-4-(1H-imidazol-1-yl)pyrazolo[1,5-a]pyrazine-6-carboxamide] | ≤ 100 nM | ≤ 40 nM |
| O=C(N[C@H]1CC[C@H](NCC(F)F)CC1)c1cn2nccc2c(-n2ccnc2)n1 [Example 37, N-((1r,4r)-4-((2,2-difluoroethyl)amino)cyclohexyl)-4-(1H-imidazol-1-yl)pyrazolo[1,5-a]pyrazine-6-carboxamide] | ≤ 100 nM | ≤ 40 nM |
| O=C(N[C@H]1CC[C@H](NCC(F)F)CC1)c1cn2ccnc2c(-n2ccnc2)n1 [Example 38, N-((1r,4r)-4-((2,2-difluoroethyl)amino)cyclohexyl)-8-(1H-imidazol-1-yl) imidazo[1,2-a]pyrazine-6-carboxamide] | ≤ 1000 nM | ≤ 40 nM |
| O=C(N[C@H]1CC[C@H](N2CC[C@@H](F)C2)CC1)c1cn2ccnc2c(-n2ccnc2)n1 [Example 39, N-((1R,4r)-4-((R)-3-fluoropyrrolidin-1-yl)cyclohexyl)-8-(1H-imidazol-1-yl) imidazo[1,2-a]pyrazine-6-carboxamide] | ≤ 100 nM | ≤ 40 nM |
| O=C(N[C@H]1CC[C@H](N2CC[C@H](F)C2)CC1)c1cn2ccnc2c(-n2ccnc2)n1 [Example 40, N-((1S,4r)-4-((S)-3-fluoropyrrolidin-1-yl)cyclohexyl)-8-(1H-imidazol-1-yl) imidazo[1,2-a]pyrazine-6-carboxamide] | ≤ 1000 nM | ≤ 40 nM |
| Cc1cncn1-c1nc(C(=O)N[C@H]2CC[C@H](NCC(F)(F)F)CC2)c2cccn2n1 [Example 42, 2-(5-methyl-1H-imidazol-1-yl)-N-((1r,4r)-4-((2,2,2-trifluoroethyl)amino)cyclohexyl)pyrrolo[2,1-f][1,2,4]triazine-4-carboxamide] | ≤ 40 nM | ≤ 40 nM |
| O=C(N[C@H]1CC[C@@H](N2CCCC2)CC1)c1nc(-n2ccnc2)nn2cccc12 [Example 44, 2-(1H-imidazol-1-yl)-N-((1s,4s)-4-(pyrrolidin-1-yl)cyclohexyl)pyrrolo[2,1-f][1,2,4]triazine-4-carboxamide] | ≤ 1000 nM | ≤ 40 nM |
| CC1(F)CN([C@H]2CC[C@H](NC(=O)c3cn4ncnc4c(-n4ccnc4)n3)CC2)C1 [Example 46, N-((1r,4r)-4-(3-fluoro-3-methylazetidin-1-yl)cyclohexyl)-8-(1H-imidazol-1-yl)-[1,2,4]triazolo[1,5-a]pyrazine-6-carboxamide] | ≤ 100 nM | ≤ 40 nM |
| CN(CC(F)(F)F)[C@H]1CC[C@H](NC(=O)c2cn3ncnc3c(-n3ccnc3)n2)CC1 [Example 47, 8-(1H-imidazol-1-yl)-N-((1r,4r)-4-(methyl (2,2,2-trifluoroethyl)amino)cyclohexyl)-[1,2,4]triazolo[1,5-a]pyrazine-6-carboxamide] | ≤ 100 nM | ≤ 40 nM |
| O=C(NC1CCN(CC(F)(F)F)CC1)c1cn2ncnc2c(-n2ccnc2)n1 [Example 50, 8-(1H-imidazol-1-yl)-N-(1-(2,2,2-trifluoroethyl)piperidin-4-yl)-[1,2,4]triazolo[1,5-a]pyrazine-6-carboxamide] | ≤ 1000 nM | ≤ 100 nM |
| O=C(N[C@H]1CC[C@H](N2CCS(=O)(=O)CC2)CC1)c1cn2ncnc2c(-n2ccnc2)n1 [Example 51, N-((1r,4r)-4-(1,1-dioxidothiomorpholino)cyclohexyl)-8-(1H-imidazol-1-yl)-[1,2,4]triazolo[1,5-a]pyrazine-6-carboxamide] | ≤ 1000 nM | ≤ 40 nM |
| O=C(N[C@H]1CC[C@H](NCC(F)F)CC1)c1cn2ncnc2c(-n2ccnc2)n1 [Example 52, N-((1r,4r)-4-((2,2-difluoroethyl)amino)cyclohexyl)-8-(1H-imidazol-1-yl)-[1,2,4]triazolo[1,5-a]pyrazine-6-carboxamide] | ≤ 100 nM | ≤ 40 nM |
| CC(C)(N[C@H]1CC[C@H](NC(=O)c2cn3ncnc3c(-n3ccnc3)n2)CC1)C(F)(F)F [Example 53, 8-(1H-imidazol-1-yl)-N-((1r,4r)-4-((1,1,1-trifluoro-2-methylpropan-2-yl)amino)cyclohexyl)-[1,2,4]triazolo[1,5-a]pyrazine-6-carboxamide] | ≤ 1000 nM | ≤ 40 nM |
| CO[C@@H]1CCN([C@H]2CC[C@@H](NC(=O)c3cn4ncnc4c(-n4ccnc4)n3)CC2)C1 [Example 54, 8-(1H-imidazol-1-yl)-N-((1S,4s)-4-((R)-3-methoxypyrrolidin-1-yl)cyclohexyl)-[1,2,4]triazolo[1,5-a]pyrazine-6-carboxamide] | ≤ 1000 nM | ≤ 40 nM |
| O=C(N[C@H]1CC[C@@H](N2CCSCC2)CC1)c1cn2ncnc2c(-n2ccnc2)n1 [Example 55, 8-(1H-imidazol-1-yl)-N-((1s,4s)-4-thiomorpholinocyclohexyl)-[1,2,4]triazolo[1,5-a]pyrazine-6-carboxamide] | ≤ 1000 nM | ≤ 40 nM |
| O=C(N[C@H]1CC[C@H](N2CC(C(F)(F)F)C2)CC1)c1cn2ncnc2c(-n2ccnc2)n1 [Example 56, 8-(1H-imidazol-1-yl)-N-((1r,4r)-4-(3-(trifluoromethyl)azetidin-1-yl)cyclohexyl)-[1,2,4]triazolo[1,5-a]pyrazine-6-carboxamide] | ≤ 100 nM | ≤ 40 nM |
